Laboratory results taken from patent US20100004247A1, “COMBINATION COMPRISING A MEK INHIBITOR AND AN AURORA KINASE INHIBITOR 188” (AstraZeneca AB, priority 2007, published 2010).

Legend:
[1] = Pro-drug conversion to active moiety in human plasma; assay type: in vitro ADME
[2] = system: Calu-6 human lung tumour xenografts; assay: In vivo combination study in the Calu-6 human lung cancer xenograft model (tumour growth inhibition); set-up: species or system female athymic mice (Swiss nu/nu genotype); conditions: Day 35; AZD1152 150 mg/kg/day s.c. infusion 2 days; AZD6244 25 mg/kg twice daily oral 14 days; 24 h gap in sequences
Protocol: To establish the in vivo efficacy of combination therapy of AZD1152 and AZD6244 in Calu-6 human lung xenograft model, experiments were conducted in female athymic mice (Swiss nu/nu genotype, ≧6 weeks of age). Calu-6 human lung tumour xenografts were established in mice by injecting 1×10^6 cells (100 μl volume containing 50% Matrigel®) subcutaneously in the dorsal flank. Tumour volumes were assessed using bilateral Vernier calliper measurement at least twice weekly and calculated using the formula (length×width)×√(length×width)×(π/6), where length was taken to be the longest diameter across the tumour and width the corresponding perpendicular. Mice were randomised into 4 treatment groups (10 mice/group) when the mean tumour volume reached approximately 0.2 cm^3. Following randomisation, mice were treated with drug vehicles for AZD1152 or AZD6244, AZD1152, AZD6244 or a combination of AZD1152 plus AZD6244 according to treatment schedules described below: […]
Tumour growth inhibition was assessed by comparison of the differences in tumour volume between control and treated groups on Day 35 of the study. The effects of combination treatment sequence were assessed by comparing any effect on tumour growth in the group of animals receiving AZD1152 and AZD6244 with tumour growth in the groups where animals received single agent therapy alone. […]

Structure (SMILES)	conversion of pro-drug to the active moiety AZD1152 HQPA [1]	growth inhibition of Calu-6 tumours compared to the vehicle-dosed group [2]
CCN(CCCOc1ccc2c(Nc3cc(CC(=O)Nc4cccc(F)c4)n[nH]3)ncnc2c1)CCOP(=O)(O)O [AZD1152, 2-{[3-({4-[(5-{2-[(3-fluorophenyl)amino]-2-oxoethyl}-1H-pyrazol-3-yl)amino]quinazolin-7-yl}oxy)propyl](ethyl)amino}ethyl dihydrogen phosphate]	rapidly and completely converted	94.7%
Cn1cnc2c(F)c(Nc3ccc(Br)cc3Cl)c(C(=O)NOCCO)cc21 [AZD6244, 6-(4-Bromo-2-chloro-phenylamino)-7-fluoro-3-methyl-3H-benzoimidazole-5-carboxylic acid (2-hydroxy-ethoxy)-amide]		57.8%
